Experimental data published in patent publication US8003677B2, “2-heteroaryl-pyrrolo[3,4-c]pyrrole derivatives and their use as SCD inhibitors” (Sanofi-Aventis, priority 2007, dated 2011).

Target: T1, SCD1 (Rattus norvegicus, UniProt P07308)
T1 construct: The resuspended microsome fraction was stored at −80° C; from tissue; host or cells: liver microsomes of male Wistar rats fed a carbohydrate-rich, low-fat diet
T1 sequence (P07308 1-358): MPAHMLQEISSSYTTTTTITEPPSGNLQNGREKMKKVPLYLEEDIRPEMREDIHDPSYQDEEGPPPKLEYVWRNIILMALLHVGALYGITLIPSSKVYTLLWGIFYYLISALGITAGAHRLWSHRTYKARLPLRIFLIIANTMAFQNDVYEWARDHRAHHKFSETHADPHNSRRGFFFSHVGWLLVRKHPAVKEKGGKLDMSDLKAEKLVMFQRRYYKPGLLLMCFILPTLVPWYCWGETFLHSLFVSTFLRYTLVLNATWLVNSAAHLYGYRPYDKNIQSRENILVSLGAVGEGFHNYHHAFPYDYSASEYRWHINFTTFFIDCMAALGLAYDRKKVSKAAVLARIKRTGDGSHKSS
Test: stearoyl-CoA desaturase (SCD1) activity in rat liver microsomes, TLC assay with 1-14C-labeled stearic acid
Format: biochemical
Details: inhibition of SCD1 activity; compound at 10 μM/l; 15 μg rat liver microsomes (male Wistar rats); 37° C., 1 h
Method: The efficacy of the inventive compounds of the formula I was tested with microsomal enzymes in the following assay system:
The livers of male Wistar rats which (to induce the expression of SCD1) had been fed with a carbohydrate-rich, low-fat diet were homogenized with a Potter tissue homogenizer and differential centrifugation in a buffer which contained 250 mM/l of sucrose and 5 mM/l of HEPES (pH 7.0). The resuspended microsome fraction was stored at −80° C. The stearoyl-CoA desaturase activity was determined in a thin-film chromatography assay with 1-^14C-labeled stearic acid. In short, the particular inventive compounds (in DMSO in a final concentration of 1% [v/v]) were incubated with 15 μg of the rat liver microsomes in 200 μl of assay buffer (6 mM/l of MgCl2, 250 mM/l of sucrose, 150 mM/l of KCl, 40 mM/l of NaF, 100 mM/l of Na2HPO4 (pH7.4), 1.3 mM/l of ATP, 1.5 mM/l of reduced glutathione, 60 uM/l of CoA, 0.33 mM/l of nicotinamide and 0.94 mM/l of NADH) at room temperature for 10 min. 0.5 μCi [1-^14C]-stearic acid (55 mCi/mmol) was added, and the mixture was incubated at 37° C. for 1 h. The radioactively labeled fatty acids were subsequently hydrolyzed at 65° C. with 2.5 M KOH/MeOH:H2O (4:1) for 4 h, protonated with 280 μl of formic acid and extracted with 500 μl of hexane. The TLC plates were immersed into 10% AgNO3 and heat-activated before use. 150 μl of the hexane phase were applied to the plates, and the TLC plates were developed in buffer (chloroform:methanol:acetic acid:water [90:8:1:0.8]) and dried. The plates were read off in a phosphoimager to quantify the SCD1 activity.
The person skilled in the art can modify this assay in various aspects to determine the inhibition of the stearoyl-CoA desaturase activity.

`CN(Cc1nccs1)C(=O)c1ccc(N2CC3=C(CN(C(=O)c4ccccc4C(F)(F)F)C3)C2)nc1` [Example 16, N-Methyl-N-thiazol-2-ylmethyl-6-[5-(2-trifluoromethylbenzoyl)-3,4,5,6-tetrahydro-1H-pyrrolo[3,4-c]pyrrol-2-yl]nicotinamide] and `O=C(NCc1nccs1)c1ccc(N2CC3=C(CN(C(=O)c4ccccc4C(F)(F)F)C3)C2)nc1` [Example 15, N-Thiazol-2-ylmethyl-6-[5-(2-trifluoromethylbenzoyl)-3,4,5,6-tetrahydro-1H-pyrrolo-[3,4-c]pyrrol-2-yl]nicotinamide] are the same in inhibition at 10 µM: 100% for the first, 100% for the second.

`O=C(NCCC1CC1)c1ccc(N2CC3=C(CN(C(=O)c4ccccc4C(F)(F)F)C3)C2)nn1` [Example 19, N-(2-Cyclopropylethyl)-6-[5-(2-trifluoromethylbenzoyl)-3,4,5,6-tetrahydro-1H-pyrrolo-[3,4-c]pyrrol-2-yl]pyridazine-3-carboxamide] and `O=C(NCCC1CC1)c1ccc(N2CC3=C(CN(C(=O)c4ccccc4C(F)(F)F)C3)C2)nc1` [Example 14, N-(2-Cyclopropylethyl)-6-[5-(2-trifluoromethylbenzoyl)-3,4,5,6-tetrahydro-1H-pyrrolo-[3,4-c]pyrrol-2-yl]nicotinamide] are the same in inhibition at 10 µM: 100% for the first, 100% for the second.

First: O=C(NCC1CCCC1)c1ccc(N2CC3=C(CN(C(=O)c4ccccc4C(F)(F)F)C3)C2)nc1 [Example 21, N-Cyclopentylmethyl-6-[5-(2-trifluoromethylbenzoyl)-3,4,5,6-tetrahydro-1H-pyrrolo-[3,4-c]pyrrol-2-yl]nicotinamide]
Second: O=C(NCC1CC1)c1ccc(N2CC3=C(CN(C(=O)c4ccccc4C(F)(F)F)C3)C2)nc1 [Example 17, N-Cyclopropylmethyl-6-[5-(2-trifluoromethylbenzoyl)-3,4,5,6-tetrahydro-1H-pyrrolo-[3,4-c]pyrrol-2-yl]nicotinamide]
The inhibition at 10 µM of the first is higher: 100% for the first, 97% for the second.

Going from `CCOC(=O)c1cnc(N2CC3=C(CN(C(=O)c4ccccc4C(F)(F)F)C3)C2)s1` [Example 1, Ethyl 2-[5-(2-trifluoromethylbenzoyl)-3,4,5,6-tetrahydro-1H-pyrrolo[3,4-c]pyrrol-2-yl]thiazole-5-carboxylate] to `O=C(NCCC1CC1)c1cnc(N2CC3=C(CN(C(=O)c4ccccc4C(F)(F)F)C3)C2)s1` [Example 2, N-(2-Cyclopropylethyl)-2-[5-(2-trifluoromethylbenzoyl)-3,4,5,6-tetrahydro-1H-pyrrolo-[3,4-c]pyrrol-2-yl]thiazole-5-carboxamide], the inhibition at 10 µM falls from 65% to 31%.

`CC(C)CCNC(=O)c1ccc(N2CC3=C(CN(C(=O)c4ccccc4C(F)(F)F)C3)C2)nc1` [Example 10, N-(3-Methylbutyl)-6-[5-(2-trifluoromethylbenzoyl)-3,4,5,6-tetrahydro-1H-pyrrolo[3,4-c]-pyrrol-2-yl]nicotinamide] and `O=C(NCCC1CCCC1)c1ccc(N2CC3=C(CN(C(=O)c4ccccc4C(F)(F)F)C3)C2)nc1` [Example 22, N-(2-Cyclopentylethyl)-6-[5-(2-trifluoromethylbenzoyl)-3,4,5,6-tetrahydro-1H-pyrrolo-[3,4-c]pyrrol-2-yl]nicotinamide] are the same in inhibition at 10 µM: 100% for the first, 100% for the second.

`O=C(NCc1cncs1)c1ccc(N2CC3=C(CN(C(=O)c4ccccc4C(F)(F)F)C3)C2)nc1` [Example 20, N-Thiazol-5-ylmethyl-6-[5-(2-trifluoromethylbenzoyl)-3,4,5,6-tetrahydro-1H-pyrrolo-[3,4-c]pyrrol-2-yl]nicotinamide] and `O=C(NCCc1ccccc1)c1ccc(N2CC3=C(CN(C(=O)c4ccccc4C(F)(F)F)C3)C2)nc1` [Example 13, N-Phenethyl-6-[5-(2-trifluoromethylbenzoyl)-3,4,5,6-tetrahydro-1H-pyrrolo[3,4-c]pyrrole-2-yl]nicotinamide] are the same in inhibition at 10 µM: 100% for the first, 100% for the second.

First: CCC(O)CCNC(=O)c1ccc(N2CC3=C(CN(C(=O)c4cc(OC)ccc4Br)C3)C2)nn1 (centres unmarked) [Example 18, N-(3-Hydroxypentyl)-6-[5-(2-bromo-5-methoxybenzoyl)-3,4,5,6-tetrahydro-1H-pyrrolo-[3,4-c]pyrrol-2-yl]pyridazine-3-carboxamide]
Second: O=C(NCCCc1ccccc1)c1cnc(N2CC3=C(CN(C(=O)c4ccccc4C(F)(F)F)C3)C2)s1 [Example 9, N-(3-Phenylpropyl)-2-[5-(2-trifluoromethylbenzoyl)-3,4,5,6-tetrahydro-1H-pyrrolo[3,4-c]-pyrrol-2-yl]thiazole-5-carboxamide]
The inhibition at 10 µM of the first is higher: 38% for the first, 26% for the second.
